# According to patent US20240366623A1, “COMPOSITIONS FOR PREVENTING OR TREATING CHARCOT-MARIE-TOOTH DISEASE (CMT)” (Chong Kun Dang Pharmaceutical Corp., priority 2021, published 2024):
# Test system: Gars^P234KY CMT2D motor neurons (CMT2D MNs)
# Experiment: Mitochondrial axon transport assay (MATA) in Gars^P234KY CMT2D motor neurons
# Assay type: cell-based, human
# Settings: two hours; for Relative velocity (Mean ± SEM): WT MNs group set to 1; for Increased velocity: recovery relative to WT (100) and CMT2D vehicle (0)
# Experimental: The effect of the compound of the present disclosure on axonal mitochondrial movement in motor neurons derived from a human iPSC-based model of Gars^P234KY CMT2D (hereinafter referred to as “CMT2D MNs”) was evaluated as follows.
# Wild type (WT) and Gars^P234KY induced pluripotent stem cell (iPSC) were provided from Samsung Medical Center (IRB No. 2016-12-001), transferred to a CKD pharmacology research laboratory before an experiment, and differentiated into motor neurons according to the following protocol. To produce embryoid bodies, a colony of iPSC was dissociated into small clumps by using enzymes and cultured in suspension in a Petri dish for two days. Culture medium was supplemented with 10 μM Y27632 (Rho-associated kinase inhibitor; Y0503, Tocris Bioscience, Bristol, UK), 20 ng/mL bFGF (PHG0024, Gibco), 10 μM SB435142 (SMAD inhibitor; S4317, Sigma), 0.2 μM LDN193189 (SMAD inhibitor; SML0559, Sigma) and penicillin/streptomycin (15140122, Gibco). On day 5, for […], 1 μM retinoic acid (R2625, Sigma), 0.4 μg/mL ascorbic acid (A4544, Sigma), 10 ng/mL brain-derived neurotrophic factor (BDNF; SRP3014, Sigma) and 1% N2 supplement (17502048, Gibco) were added. On day 7, for ventralization, SB435142 and LDN193189 (SMAD inhibitor) were washed, and 1 μM purmorphamine (Sonic hedgehog agonist; SML0868, Sigma) were added. On day 17, cells were cultured in Neurobasal medium [prepared on day 7 and supplemented with 10 ng/mL IGF-1 (I3769, Sigma), 10 ng/mL GDNF (G1777, Gibco) and 10 ng/mL 2% B-27™ (A1486701, Gibco)]. The cells were cultured in suspension in a Petri dish. After day 21, neurospheres were isolated with Accutase™ (A1110501, Gibco), plated on a poly-L-lysine/laminin-coated culture dish or a confocal dish (211350, SPL), and supplemented with all previous factors and Neurobasal medium containing 25 μM β-mercaptoethanol (21985023, Gibco) and 25 μM glutamic acid (G1626, Sigma).
# Differentiated nerve cells were treated with compound 43 (20, 300, and 500 nM) of the present disclosure for two hours, respectively. For the control group, the cells were incubated in a medium containing DMSO (D2650-5X 10 ML, Sigma) at a final concentration of 0.05%. For mitochondrial staining, 0.01 nM Mitotracker Red CMXRos (M7512, Life technologies, NY, USA) was treated for 15 minutes immediately before imaging.
# The axonal movement of mitochondria from the neuron's axon was imaged with a confocal microscope (Leica SP8; Leica microsystems, UK) equipped with a live cell imaging chamber (Live-cell instrument, Seoul, Korea), which maintains the cells at 37° C. in an atmosphere of 5% CO2/95% air. Time-lapse image recordings were taken at an exposure time of […] at an interval of one second for one minute, and the images were analyzed with IMARIS software (BITPLANE, Zurich, Switzerland) to calculate an instantaneous velocity. By using the IMARIS, each mitochondria in an axonal portion of a neuron were captured as an individual particle for each frame. To select an optimal velocity range, the instantaneous velocity of each mitochondrion at each time point was plotted as a histogram at an interval of 0.5 μm/sec. A velocity range in which an instantaneous velocity of the CMT2D MNs group was reduced by about 40% compared to an instantaneous velocity of the WT MNs group was selected, and then the data were normalized to set the velocity of the WT MNs group to 1. In this way, the recovery effect of the compound of the present disclosure on mitochondrial velocity was calculated as a single relative value, and GraphPad Prism 5 (GraphPad Software, Inc., USA) was used to count and plot the frequency of the instantaneous velocity.
# One-way ANOVA was performed with GraphPad Prism 5.0 software (post hoc: Dunnett's multiple comparison test) and all data were expressed as mean±SEM.
structure (smiles),measurement,setting,value
"O=C(N1CCS(=O)(=O)CC1)N(Cc1ccc(-c2nnc(C(F)F)o2)cn1)c1ccccc1 [Compound 43, N-((5-(5-(difluoromethyl)-1,3,4-oxadiazol-2-yl)pyridin-2-yl)methyl)-N-phenylthiomorpholine-4-carboxamide 1,1-dioxide]",Relative velocity (Mean ± SEM),20 nM,0.823 ± 0.102
same,Increased velocity,20 nM,54.5%
same,Relative velocity (Mean ± SEM),300 nM,0.946 ± 0.130
same,Increased velocity,300 nM,86.1%
same,Relative velocity (Mean ± SEM),500 nM,1.166 ± 0.207
same,Increased velocity,500 nM,142.7%
